Activity calls are given as the source filed them. No cut-off for these calls is given here.
Experiments:
Tankyrase 1/2 [1] = biological target: T1, Tankyrase 1/2 (Homo sapiens, UniProt Q9H2K2+O95271); experiment: Inhibition of tankyrase in human SW480 cells assessed as axin2 accumulation after 24 hrs by Hoechst dye-based assay; format: cell-based
T1 sequence (Q9H2K2 whole entry): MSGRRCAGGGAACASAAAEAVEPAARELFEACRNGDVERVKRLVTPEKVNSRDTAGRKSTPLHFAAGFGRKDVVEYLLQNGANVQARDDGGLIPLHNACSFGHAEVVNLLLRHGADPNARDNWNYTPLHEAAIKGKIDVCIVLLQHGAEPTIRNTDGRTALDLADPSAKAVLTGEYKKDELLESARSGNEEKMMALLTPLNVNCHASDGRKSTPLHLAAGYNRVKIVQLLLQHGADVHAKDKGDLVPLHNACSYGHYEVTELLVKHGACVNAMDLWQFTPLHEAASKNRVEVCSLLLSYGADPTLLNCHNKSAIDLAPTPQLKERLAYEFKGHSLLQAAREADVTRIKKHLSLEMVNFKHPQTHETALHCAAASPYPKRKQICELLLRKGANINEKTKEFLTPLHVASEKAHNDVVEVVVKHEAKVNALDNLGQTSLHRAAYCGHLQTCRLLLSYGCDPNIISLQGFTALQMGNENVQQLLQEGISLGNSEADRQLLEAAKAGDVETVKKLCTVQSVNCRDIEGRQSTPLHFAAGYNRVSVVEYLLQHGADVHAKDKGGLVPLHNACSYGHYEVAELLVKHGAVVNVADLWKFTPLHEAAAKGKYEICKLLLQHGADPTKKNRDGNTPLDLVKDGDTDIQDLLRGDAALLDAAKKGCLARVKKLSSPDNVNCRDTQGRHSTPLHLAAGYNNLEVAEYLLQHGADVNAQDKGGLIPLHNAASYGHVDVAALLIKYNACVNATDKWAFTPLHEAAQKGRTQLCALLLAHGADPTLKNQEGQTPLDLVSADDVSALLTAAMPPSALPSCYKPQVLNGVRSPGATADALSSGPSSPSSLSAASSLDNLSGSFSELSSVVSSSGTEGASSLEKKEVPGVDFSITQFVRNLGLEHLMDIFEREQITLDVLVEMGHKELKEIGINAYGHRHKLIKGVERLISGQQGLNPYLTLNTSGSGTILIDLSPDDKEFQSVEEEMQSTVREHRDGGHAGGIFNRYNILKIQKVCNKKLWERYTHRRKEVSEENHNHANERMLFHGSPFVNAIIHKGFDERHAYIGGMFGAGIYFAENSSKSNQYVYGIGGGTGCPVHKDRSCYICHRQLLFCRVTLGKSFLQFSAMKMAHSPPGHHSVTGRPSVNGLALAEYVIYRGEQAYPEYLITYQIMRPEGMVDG
T1 sequence (O95271 whole entry): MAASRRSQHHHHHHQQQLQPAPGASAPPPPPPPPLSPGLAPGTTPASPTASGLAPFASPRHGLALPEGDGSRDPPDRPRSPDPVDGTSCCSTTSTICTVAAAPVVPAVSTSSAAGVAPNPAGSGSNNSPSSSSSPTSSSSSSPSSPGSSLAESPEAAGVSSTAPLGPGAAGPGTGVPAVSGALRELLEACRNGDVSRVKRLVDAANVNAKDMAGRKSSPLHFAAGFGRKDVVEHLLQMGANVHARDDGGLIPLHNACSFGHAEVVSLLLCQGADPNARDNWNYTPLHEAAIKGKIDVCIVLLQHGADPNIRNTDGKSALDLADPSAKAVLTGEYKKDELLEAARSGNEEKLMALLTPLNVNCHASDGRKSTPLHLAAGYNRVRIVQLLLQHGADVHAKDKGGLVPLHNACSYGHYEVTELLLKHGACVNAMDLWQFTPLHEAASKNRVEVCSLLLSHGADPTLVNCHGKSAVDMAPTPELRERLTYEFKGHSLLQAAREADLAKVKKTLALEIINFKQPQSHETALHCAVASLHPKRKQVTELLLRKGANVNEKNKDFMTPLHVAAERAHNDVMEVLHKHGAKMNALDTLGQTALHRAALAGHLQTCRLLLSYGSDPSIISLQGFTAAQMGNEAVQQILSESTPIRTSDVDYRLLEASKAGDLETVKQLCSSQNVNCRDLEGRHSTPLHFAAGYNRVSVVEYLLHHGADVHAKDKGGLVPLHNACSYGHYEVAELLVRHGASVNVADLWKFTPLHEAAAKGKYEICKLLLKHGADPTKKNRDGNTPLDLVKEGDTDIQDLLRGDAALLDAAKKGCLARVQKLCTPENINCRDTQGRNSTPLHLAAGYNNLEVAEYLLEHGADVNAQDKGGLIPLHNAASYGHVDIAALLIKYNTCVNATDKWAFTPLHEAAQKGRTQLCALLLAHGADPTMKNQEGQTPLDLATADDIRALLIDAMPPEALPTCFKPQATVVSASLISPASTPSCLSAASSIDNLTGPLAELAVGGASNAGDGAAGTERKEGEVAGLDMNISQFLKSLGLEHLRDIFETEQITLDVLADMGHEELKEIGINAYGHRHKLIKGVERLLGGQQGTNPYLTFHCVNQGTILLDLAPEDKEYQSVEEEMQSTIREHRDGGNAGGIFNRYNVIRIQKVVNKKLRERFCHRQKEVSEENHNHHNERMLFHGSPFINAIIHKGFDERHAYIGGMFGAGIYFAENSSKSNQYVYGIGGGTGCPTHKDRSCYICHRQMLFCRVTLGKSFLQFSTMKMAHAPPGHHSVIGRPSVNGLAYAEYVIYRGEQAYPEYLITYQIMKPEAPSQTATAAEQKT

Tankyrase 1/2 [2] = biological target: T1, Tankyrase 1/2; experiment: Inhibition of tankyrase in human SW480 cells assessed as degradation of total beta-catenin after 40 to 48 hrs; format: cell-based
[3] = Intrinsic clearance in human liver microsomes; format: ADME; settings: read-out: CLH
Mus musculus [4] = experiment: Toxicity in athymic nude mouse assessed as hunched posture at 100 mg/kg, po bid for 8 days; format: organism-based; design: dose 100 mg/kg, route oral; settings: in vivo, 192 h
[5] = Cytotoxicity against human DLD1 cells; format: functional, cell-based; settings: DLD-1
Mus musculus [6] = experiment: In vivo inhibition of tankyrase in tumor of athymic nude mouse xenografted with human DLD1 cells assessed as axin accumulation at 50 mg/kg, po bid for 3 days; format: functional, organism-based; design: dose 50 mg/kg; settings: DLD-1
[7] = biological target: Alpha-1A adrenergic receptor (Homo sapiens, UniProt P35348); experiment: Binding affinity to adrenergic alpha1A receptor (unknown origin)
Sequence of Alpha-1A adrenergic receptor (P35348 whole entry): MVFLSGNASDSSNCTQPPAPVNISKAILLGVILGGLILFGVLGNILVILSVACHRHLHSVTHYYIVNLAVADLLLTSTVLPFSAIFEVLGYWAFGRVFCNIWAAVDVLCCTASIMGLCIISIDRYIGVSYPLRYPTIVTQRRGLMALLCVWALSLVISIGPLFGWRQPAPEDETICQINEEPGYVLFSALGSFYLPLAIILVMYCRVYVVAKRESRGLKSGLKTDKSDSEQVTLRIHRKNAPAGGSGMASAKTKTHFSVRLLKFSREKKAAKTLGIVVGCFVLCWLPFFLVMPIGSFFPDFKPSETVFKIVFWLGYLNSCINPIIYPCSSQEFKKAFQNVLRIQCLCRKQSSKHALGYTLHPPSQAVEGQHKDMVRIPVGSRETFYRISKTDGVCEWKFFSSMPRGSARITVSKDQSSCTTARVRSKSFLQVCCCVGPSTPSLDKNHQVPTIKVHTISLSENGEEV

Mus musculus [8] = experiment: Toxicity in athymic nude mouse assessed as diarrhea at 100 mg/kg, po bid for 8 days; format: organism-based; design: dose 100 mg/kg, route oral; settings: in vivo, 192 h
Mus musculus [9] = experiment: Toxicity in athymic nude mouse assessed as dehydration at 100 mg/kg, po bid for 8 days; format: organism-based; design: dose 100 mg/kg, route oral; settings: in vivo, 192 h
[10] = biological target: Poly [ADP-ribose] polymerase tankyrase-2 (Homo sapiens, UniProt Q9H2K2); experiment: Inhibition of recombinant TNKS2 (unknown origin) after 60 mins by spectrophotometric analysis
[11] = biological target: C-X-C chemokine receptor type 2 (Homo sapiens, UniProt P25025); experiment: Binding affinity to CXCR2 (unknown origin)
Sequence of C-X-C chemokine receptor type 2 (P25025 whole entry): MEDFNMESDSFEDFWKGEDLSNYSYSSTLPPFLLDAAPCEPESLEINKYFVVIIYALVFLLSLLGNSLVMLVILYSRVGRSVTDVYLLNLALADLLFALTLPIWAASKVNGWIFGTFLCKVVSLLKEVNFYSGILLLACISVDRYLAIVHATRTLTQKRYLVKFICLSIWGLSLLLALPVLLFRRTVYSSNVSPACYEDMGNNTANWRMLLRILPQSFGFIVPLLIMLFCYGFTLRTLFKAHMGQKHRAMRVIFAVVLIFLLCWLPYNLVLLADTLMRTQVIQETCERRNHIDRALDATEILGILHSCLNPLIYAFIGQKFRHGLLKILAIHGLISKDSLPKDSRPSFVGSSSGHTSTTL

Histamine H1 receptor = Histamine H1 receptor (Homo sapiens, UniProt P35367); experiment: Binding affinity to histamine H1 receptor (unknown origin)
Sequence of Histamine H1 receptor (P35367 whole entry): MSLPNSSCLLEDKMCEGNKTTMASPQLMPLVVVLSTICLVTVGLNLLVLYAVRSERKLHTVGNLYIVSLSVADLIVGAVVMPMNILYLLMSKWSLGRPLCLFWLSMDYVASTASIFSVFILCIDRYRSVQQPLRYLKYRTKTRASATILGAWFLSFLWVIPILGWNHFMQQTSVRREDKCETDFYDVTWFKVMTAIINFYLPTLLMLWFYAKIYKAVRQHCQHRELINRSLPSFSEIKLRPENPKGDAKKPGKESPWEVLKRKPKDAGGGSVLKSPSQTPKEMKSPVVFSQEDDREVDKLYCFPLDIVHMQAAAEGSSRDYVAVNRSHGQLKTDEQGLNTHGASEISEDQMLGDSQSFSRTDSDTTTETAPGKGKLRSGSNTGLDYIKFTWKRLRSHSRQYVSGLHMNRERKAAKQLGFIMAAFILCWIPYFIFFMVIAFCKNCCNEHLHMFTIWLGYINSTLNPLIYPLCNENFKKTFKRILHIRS

Adenosine receptor A2a = Adenosine receptor A2a (Homo sapiens, UniProt P29274); experiment: Binding affinity to adenosine A2A receptor (unknown origin)
Sequence of Adenosine receptor A2a (P29274 whole entry): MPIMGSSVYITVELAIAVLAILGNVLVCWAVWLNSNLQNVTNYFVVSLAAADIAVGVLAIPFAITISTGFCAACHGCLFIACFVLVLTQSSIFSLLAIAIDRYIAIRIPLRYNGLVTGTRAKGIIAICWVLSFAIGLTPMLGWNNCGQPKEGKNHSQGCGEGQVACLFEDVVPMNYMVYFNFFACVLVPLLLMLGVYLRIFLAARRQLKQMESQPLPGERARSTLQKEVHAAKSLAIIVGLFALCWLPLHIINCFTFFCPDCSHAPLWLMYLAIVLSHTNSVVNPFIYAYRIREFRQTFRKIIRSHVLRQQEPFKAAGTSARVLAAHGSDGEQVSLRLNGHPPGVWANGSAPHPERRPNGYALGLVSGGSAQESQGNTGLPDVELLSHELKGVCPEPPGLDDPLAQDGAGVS

Row | EC50 (Tankyrase 1/2 [1]) | IC50 (Tankyrase 1/2 [2]) | microsomal CLint [3] | Structure (SMILES) | Activity (Mus musculus [4]) | IC50 [5] | inhibition (Mus musculus [6]) | IC50 [7] | Activity (Mus musculus [8]) | Activity (Mus musculus [9]) | IC50 [10] | IC50 [11] | IC50 (Histamine H1 receptor) | IC50 (Adenosine receptor A2a)
1 | 709 nM | 233 nM | 33 µL/min/mg | CC1(C)OC(=O)N(c2ccc(-c3cnc(N)c(-c4ncccn4)c3)cc2)[C@H]1c1ccccc1 |  |  |  |  |  |  |  |  |  | 
2 |  |  |  | CC1(C)OC(=O)N([C@H]2CC[C@H](c3cnc(N)c(-c4ncccn4)c3)CC2)[C@H]1c1ccccc1 | Toxic | 3000 nM | Active | > 48500 nM | Toxic | Toxic | 2 nM | > 48500 nM | > 48500 nM | > 48500 nM

— ChEMBL document CHEMBL3098003, “Structure-based design of 2-aminopyridine oxazolidinones as potent and selective tankyrase inhibitors” (ACS Med Chem Lett, 2013)
